Experimental data taken from EP0481744B1, “Piperazine derivatives” (JOHN WYETH & BROTHER LIMITED, priority 1990, dated 1992).

What was measured:
[1] = system: mouse exploratory activity; assay: Potential anxiolytic activity: mouse exploratory activity in a two-compartment light/dark box; assay type: in vivo; conditions: s.c.
Method: The compounds were also tested for potential anxiolytic activity by a test procedure measuring mouse exploratory activity in a two-compartment light/dark box based upon the procedure of B Costall et al, Neuropharmacology, 1987, 26, 195-200 and J.N. Crawley et al, Pharmac. Biochem. Behav. 1980, 13, 167-170. The results are given below

[2] = biological target: T1, 5HT1A receptor (Rattus norvegicus, UniProt P19327); assay: 5HT1A receptor antagonism: antagonism of 8-OH DPAT syndrome in the rat; assay type: in vivo; parameters: (8-OH DPAT) syndrome in the rat; from tissue; host or cells: whole animal (rat), in vivo; conditions: antagonism of 8-hydroxy-2-(di-n-propylamino)-tetralin (8-OH DPAT) syndrome in the rat; s.c.
T1 sequence (P19327 1-422): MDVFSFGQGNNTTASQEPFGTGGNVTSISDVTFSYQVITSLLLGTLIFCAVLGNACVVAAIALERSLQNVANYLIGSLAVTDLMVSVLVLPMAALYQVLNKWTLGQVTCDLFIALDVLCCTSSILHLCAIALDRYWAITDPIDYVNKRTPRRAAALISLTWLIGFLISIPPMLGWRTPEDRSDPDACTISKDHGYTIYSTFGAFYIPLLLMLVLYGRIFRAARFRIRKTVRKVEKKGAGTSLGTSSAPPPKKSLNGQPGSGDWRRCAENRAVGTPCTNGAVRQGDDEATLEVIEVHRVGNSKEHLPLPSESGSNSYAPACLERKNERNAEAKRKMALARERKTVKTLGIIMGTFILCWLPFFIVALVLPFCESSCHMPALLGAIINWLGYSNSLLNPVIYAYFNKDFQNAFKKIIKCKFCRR
Method: The compounds were also tested for 5HT1A receptor antagonism activity in a test involving the antagonism of 8-hydroxy-2-(di-n-propylamino)-tetralin (8-OH DPAT) syndrome in the rat. The results are given below

[3] = biological target: T1, 5HT1A receptor; assay: 5-HT1A receptor binding activity in rat hippocampal membrane homogenate; parameters: rat hippocampal membrane homogenate; from tissue; host or cells: rat hippocampus (membrane homogenate)
Method: The compounds of the invention were tested for 5-HT1A receptor binding activity in rat hippocampal membrane homogenate by the method of B S Alexander and M D Wood, J Pharm Pharmacol, 1988, 40, 888-891.

SMILES	MED [1]	MED [2]	IC50 [3] [nM]
COc1ccccc1N1CCN(CCC(C(=O)N2CCCCCC2)c2ccccc2)CC1 (stereo not drawn) [Compound A, 2,3,4,5,6,7-hexahydro-1-{4-[1-[4-(2-methoxyphenyl)-piperazinyl]]-2-phenylbutyryl}-1H-azepine]	0.03 mg/kg; s.c.	0.03 mg/kg; s.c.	3
COc1ccccc1N1CCN(CCC(C(=O)N2CCCCCC2)c2ccccc2)CC1 (single isomer, unassigned) [Compound C, 2,3,4,5,6,7-Hexahydro-1-⁅4-[1-[4-(2-methoxyphenyl)-piperazinyl]]-2-phenylbutyryl⁆-1H-azepine]			1
COc1ccccc1N1CCN(CC(C(=O)N2CCCCCC2)c2ccccc2)CC1 (stereo not drawn) [Compound B, 2,3,4,5,6,7-hexahydro-1-⁅3-⁅1-[4-(2-methoxyphenyl)piperazinyl]⁆-2-phenylpropionyl⁆-1H-azepine, reference compound]	1 mg/kg; s.c.	0.3 mg/kg; s.c.	
